Laboratory results reported in patent US11858935B1, “Pyrrolo[2,3-c][1,7]naphthyridine-2-carboxylic acid compounds as CK2 inhibitors” (KING FAISAL UNIVERSITY, priority 2023, dated 2024).

Experiments:
PC3 (prostate) = assay: In vitro cytotoxic activity (MTT) assay, PC3; assay type: cell-based; details: Homo sapiens, Prostate cell; PC3 (prostate) cells, exposed 96 hours; read-out: IC50, concentration eliciting 50% inhibition of cell proliferation
Method: (§1) Compounds 1-16 were screened for their in vitro cytotoxic activity utilizing a 3-(4,5-dimethyl-thiazol-2-yl)-2,5-diphenyltetrazolium bromide (MTT) assay against selected cancer human cell lines consisting of PC3 (prostate), HCT116 (colon), A375 (melanoma), H1299 (lung), MIAPaCa-2 (pancreas), HL60 (leukemia), MCF7 (breast), MDA-MB-231 (breast) (T. Mosmann, J. Immunol. Meth., 1983, 65, 55-63). The cells were cultured at 37° C. in RMPI1640 medium supplemented with 10% fetal bovine serum, 50 IU/mL penicillin, and 50 μg/mL streptomycin in a 5% CO2 incubator. All cells were sub-cultured 3 times/week by trypsinisation. Viable cells were seeded and allowed to adhere for 12 h before a test drug was added in 96-well plates at an initial density of 1.0×10^5 cells/mL. Tumor cell lines were separately exposed to various concentrations of the tested compounds followed by incubation at a temperature of 37° C. during 96 h inside a medium of fresh RMPI 1640. Cells were subsequently incubated at 37° C. using MTT at 0.5 mg/mL during 4 h. After removal of supernatant, formazan crystals were dissolved in isopropanol and the optical density was measured at 570 nm. CX-4945 was used as a positive control.

HCT116 (colon) = assay: In vitro cytotoxic activity (MTT) assay, HCT116; assay type: cell-based; details: Homo sapiens, HCT-116; HCT116 (colon) cells, exposed 96 hours; read-out: IC50, concentration eliciting 50% inhibition of cell proliferation
Method: as §1

A375 (melanoma) = assay: In vitro cytotoxic activity (MTT) assay, A375; assay type: cell-based; details: Homo sapiens, A-375; A375 (melanoma) cells, exposed 96 hours; read-out: IC50, concentration eliciting 50% inhibition of cell proliferation
Method: as §1

H1299 (lung) = assay: In vitro cytotoxic activity (MTT) assay, H1299; assay type: cell-based; details: Homo sapiens, NCI-H1299; H1299 (lung) cells, exposed 96 hours; read-out: IC50, concentration eliciting 50% inhibition of cell proliferation
Method: as §1

MIAPaCa-2 (pancreas) = assay: In vitro cytotoxic activity (MTT) assay, MIAPaCa-2; assay type: cell-based; details: Homo sapiens, MIA PaCa-2; MIAPaCa-2 (pancreas) cells, exposed 96 hours; read-out: IC50, concentration eliciting 50% inhibition of cell proliferation
Method: as §1

HL60 (leukemia) = assay: In vitro cytotoxic activity (MTT) assay, HL60; assay type: cell-based; details: Homo sapiens, HL-60; HL60 (leukemia) cells, exposed 96 hours; read-out: IC50, concentration eliciting 50% inhibition of cell proliferation
Method: as §1

MCF7 (breast) = assay: In vitro cytotoxic activity (MTT) assay, MCF7; assay type: cell-based; details: Homo sapiens; MCF7 (breast) cells, exposed 96 hours; read-out: IC50, concentration eliciting 50% inhibition of cell proliferation
Method: as §1

MDA-MB-231 (breast) = assay: In vitro cytotoxic activity (MTT) assay, MDA-MB-231; assay type: cell-based; details: Homo sapiens; MDA-MB-231 (breast) cells, exposed 96 hours; read-out: IC50, concentration eliciting 50% inhibition of cell proliferation
Method: as §1

[1] = biological target: T1, recombinant human CK2 (RRββ-holoenzyme) (Homo sapiens, UniProt P68400); assay: CK2 Kinase Assay (33P-ATP, substrate peptide RRRDDDSDDD); assay type: biochemical; details: final ATP concentration 15 μM, 10 min at 30° C.; read-out: protein kinase CK2 IC50
T1 construct: purchased Millipore
Method: CK2 Kinase Assay was conducted using the protocol as described in Pierre F. et al; J. Med. Chem. 2011, 54, 635-654. The tested compounds in aqueous solution were added at a volume of 10 μL to a reaction mixture comprising 10 μL of assay dilution buffer (ADB; 20 mM MOPS, pH 7.2, 25 mM β-glycerol phosphate, 5 mM EGTA, 1 mM sodium orthovanadate, and 1 mM dithiothreitol), 10 μL of substrate peptide (RRRDDDSDDD, dissolved in ADB at a concentration of 1 mM), 10 μL of recombinant human CK2 (RRββ-holoenzyme, 25 ng dissolved in ADB; Millipore). Reactions were initiated by the addition of 10 μL of ATP solution (90% 75 mM MgCl2, 75 μM ATP (final ATP concentration:15 μM) dissolved in ADB; 10% [γ-33P] ATP (stock 1 mCi/100 μL; 3000 Ci/mmol (Perkin-Elmer) and maintained for 10 min at 30° C. The reactions were quenched with 100 μL of 0.75% phosphoric acid and then transferred to and filtered through a phosphor cellulose filter plate (Millipore). After washing each well five times with 0.75% phosphoric acid, the plate was dried under vacuum for 5 min and, following the addition of 15 μL of scintillation fluid to each well, the residual radioactivity was measured using a Wallac […]. The IC50 values were derived from eight concentrations of test inhibitors.

T1 sequence (P68400 whole entry): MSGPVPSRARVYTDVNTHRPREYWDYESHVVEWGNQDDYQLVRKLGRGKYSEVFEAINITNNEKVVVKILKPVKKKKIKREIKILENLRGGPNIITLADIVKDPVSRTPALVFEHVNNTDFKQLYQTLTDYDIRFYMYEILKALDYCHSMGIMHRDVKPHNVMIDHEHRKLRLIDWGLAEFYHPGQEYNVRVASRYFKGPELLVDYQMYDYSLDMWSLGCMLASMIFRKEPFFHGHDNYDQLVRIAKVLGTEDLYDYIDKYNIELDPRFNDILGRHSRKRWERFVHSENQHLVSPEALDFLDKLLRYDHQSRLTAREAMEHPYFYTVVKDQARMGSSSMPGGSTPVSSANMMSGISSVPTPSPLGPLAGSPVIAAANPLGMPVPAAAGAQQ
T1 sequence (P67870 whole entry partner): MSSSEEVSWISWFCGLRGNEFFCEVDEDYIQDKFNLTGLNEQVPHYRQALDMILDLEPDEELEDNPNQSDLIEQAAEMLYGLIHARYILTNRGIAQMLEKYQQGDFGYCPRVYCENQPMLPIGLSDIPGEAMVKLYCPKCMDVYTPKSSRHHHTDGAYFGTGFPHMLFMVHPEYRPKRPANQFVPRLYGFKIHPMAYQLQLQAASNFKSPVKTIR

- IC50 [1]: 26 nM
SMILES: O=C(O)c1cc2c([nH]1)c(Nc1cccc(Cl)c1)nc1cnccc12 [Compound 1, 4-((3-chlorophenyl)amino)-3H-pyrrolo[2,3-c][1,7]naphthyridine-2-carboxylic acid]
- IC50 (PC3 (prostate)): 1500 nM
- IC50 (HCT116 (colon)): 1800 nM
- IC50 (A375 (melanoma)): 2300 nM
- IC50 (H1299 (lung)): 1400 nM
- IC50 (MIAPaCa-2 (pancreas)): 1700 nM
- IC50 (HL60 (leukemia)): 3100 nM
- IC50 (MCF7 (breast)): 4200 nM
- IC50 (MDA-MB-231 (breast)): 3600 nM
